Measured values from patent US20150272970A1, “TARGETING CHEMOTHERAPY AGENT RESISTANCE IN CANCER” (priority 2012, published 2015).
Entries after “also recorded” stand apart in the source; their conditions may differ.

How the values were obtained:
[1] = test system: Notch and Hedgehog pathway target genes; test: Quantitative RT-PCR of Notch and Hedgehog pathway target genes in cells; assay type: cell-based, human; settings: 1 μM, 72 hours, DU145-pCK19-GFP and 22Rv1-pCK19-GFP cells
Procedure: Total RNA was isolated using the RNeasy Mini kit according to the manufacturer's instructions (Qiagen). Complementary DNA was synthesized from equivalent concentrations of total RNA using the SuperScript III First-Strand Synthesis SuperMix Kit (Invitrogen) according to the manufacturer's instructions. Coding sequences for genes of interest and β-Actin as an internal control were amplified from 500 ng of complementary DNA using the QuantiTect SYBR Green PCR Kit (Qiagen).
Amplification was carried out using a Stratagene mx3005p (Agilent Technologies). Cycle threshold (Ct) values were determined and normalized to the housekeeping gene (β-actin) for each experiment. Fold changes for experimental groups relative to respective controls were calculated using MX Pro software (Agilent Technologies). Quantitative RT-PCR was performed in DU145-pCK19-GFP and 22Rv1-pCK19-GFP cells as well as in cells obtained from mice bearing DU145 and 22Rv1 tumor xenografts treated for 21 days with Docetaxel, and Hedgehog and Notch inhibitors, alone or in combination. Quantitative RT-PCR was performed in tumor xenografts removed 4 hours after the last drug dose was administered.

p-AKT (Ser473) = test: Immunoblot of AKT phosphorylation; assay type: cell-based, human; settings: 1 μM, 72 hours, CK19/GFP-negative cells
Procedure: (§1) Whole cell extracts were prepared in sample buffer and analyzed by immunoblotting. Primary antibodies against poly (ADP-ribose) polymerase (PARP) (BD Pharmingen), cleaved caspase-3 (Cell Signaling), cytokeratin 19 (CK19) (Abcam), cytokeratin 18 (CK18) (Abcam), androgen receptor (AR) (Sigma-Aldrich), prostate specific membrane antigen (PSMA) (Abcam), prostate specific antigen (PSA) (Epitomics), cytokeratin 5 (CK5) (Covance), cytokeratin 14 (CK14) (Biogenex), p63 (Santa Cruz), CD44 (Neomarkers), activated Notch2 (Abcam), Hes1 (Abcam), Patched (Abcam), Gli1 (Santa Cruz), Gli2 (Abcam), pan-HLA class I (Abcam), and AKT (Cell Signaling), phospho-AKT Ser 473 (Cell Signaling), Bcl-2 (Cell Signaling), ABCB1/P-Glycoprotein (Calbiochem), Green fluorescent protein (Santa Cruz), and β-Actin (Sigma-Aldrich) were used in immunoblot assays using standard procedures. Protein expression was quantified by comparing band expression using Quantity One software (Bio-Rad).

[2] = test system: DU145-pCK19-GFP and 22Rv1-pCK19-GFP sorted cells; test: Colony formation assay of GFP-sorted cells; assay type: cell-based, human; settings: 72 hours; for colony formation of CK19/GFP-negative cells / colony formation of CK19/GFP-positive cells: Mitoxantrone 125/500 nM, Cisplatin 5/2.5 μM, Vinorelbine 500/750 nM (DU145/22Rv1); for colony formation of CK19/GFP-negative cells with PI3K/AKT and Bcl-2 inhibition: LY294002 50 μM, ABT-737 10 μM
Procedure: (§2) Cells were exposed to vehicle solution (Control), LY294002 (50 μM), and ABT-737 (10 μM) for 72 hours, alone or in combination.

CK19/GFP-negative cells = test: Apoptotic response by Caspase-3 and PARP cleavage immunoblot; assay type: cell-based, human; settings: LY294002 50 μM, ABT-737 10 μM, 72 hours
Procedure: as §1, §2

Bcl-2 = test: Immunoblot of Bcl-2 expression; assay type: cell-based, human; settings: 1 μM, 72 hours, CK19/GFP-negative cells
Procedure: Whole cell extracts were prepared in sample buffer and analyzed by immunoblotting. […] Protein expression was quantified by comparing band expression using Quantity One software (Bio-Rad).

[3] = test system: DU145-pCK19-GFP and 22Rv1-pCK19-GFP cells; test: Immunoblots of Docetaxel-resistance markers in unsorted cells; assay type: cell-based, human; settings: Docetaxel 72 hours (10 nM DU145, 50 nM 22Rv1)
Procedure: as §1

22Rv1-pCK19-GFP cells = test: Flow cytometry of viable CK19/GFP populations after Docetaxel; assay type: cell-based, human; settings: 50 nM Docetaxel
Procedure: (§3) Flow cytometry analysis of subpopulations of prostate cancer cells were carried out following standard procedures. Intracellular CK19 and CK18 expression analysis was performed in single-cell suspensions fixed with 70% ethanol, whereas the expression of cell surface HLA class I was determined in fresh cell samples (without fixation). Primary antibodies against CK19 (Abcam), CK18 (Abcam), HLA class I (Abcam), HLA class I conjugated to phycoerythrin (Abcam), and GFP (Abcam) were used. […] Samples were acquired with a FACscan Flow Cytometer (BD Biosciences) and analyzed with CellQuest Pro software (BD Biosciences). A minimum of 10,000 cells were measured per sample.

[4] = test system: DU145 and 22Rv1 xenografts; test: Percentage of CK-negative cells in tumor xenografts; assay type: in vivo, NOD/SCID mice; settings: treated for 4 weeks
Procedure: Immunofluorescence analyses were conducted on prostate cancer cell lines and formalin fixed paraffin-embedded tissue sections from normal human prostate, human cancers, and tumor xenografts. Primary antibodies included a combination of cytokeratin 19 and 18 (Abcam), green fluorescence protein (Abcam), cytokeratin 5 (Covance), cytokeratin 14 (Biogenex), p63 (Santa Cruz), pan-HLA class I (Abcam), Ki67 (Abcam) and the following transcription factors: activated Notch2 (Abcam), Gli1 (Santa Cruz), Gli2 (Abcam) and androgen receptor (DAKO). […] Prostate cancer cells (10,000) were plated in 35 mm culture dishes and 24 hours later stained by standard immunofluorescence procedures. Tissue sections (5 μm) were deparaffinized and submitted to standard peroxidase based immunohistochemistry and immunofluorescence procedures. Quantification of the expression of cytokeratins, HLA class I antigens, transcription factors, and androgen receptor was performed by evaluating tumor cells. Percentage of positive and negative cells was determined by counting the number of tumor cells in 10 contiguous high power fields in three different areas of the tumor, and referred to the total number of counted cancer cells.

[5] = test system: DU145-pCK19-GFP and 22Rv1-pCK19-GFP cells; test: Live cell imaging (time-lapse) in presence of Docetaxel; assay type: cell-based, human; settings: in the presence of Docetaxel
Procedure: Time-lapse videomicroscopy was used to assess Docetaxel sensitivity of DU145-pCK19-GFP and 22Rv1-pCK19-GFP cells. Cells growing in 6-well plates at low confluence were placed in the stage inside an incubator chamber at 37° C., 50% humidity, and in an atmosphere of 5% CO2. Unattended time-lapse movies of randomly chosen GFP+ and GFP− DU145 and 22Rv1 cells were performed with a Nikon Eclipse Ti inverted microscope. NIS Elements AR (Nikon) software was used to collect and process data. Imaging was performed using a 10× objective, and images were captured using 200-ms exposure times for GFP and 20-ms exposure times for bright field every 30 min.

DU145-pCK19-GFP cells = test: Flow cytometry of viable CK19/GFP populations after Docetaxel; assay type: cell-based, human; settings: 10 nM Docetaxel for 72 h
Procedure: as §3

C[C@H](NC(=O)Cc1cc(F)cc(F)c1)C(=O)N[C@H]1N=C(c2ccccc2)c2ccccc2N(C)C1=O [Compound E]
targeting of respective pathway (mRNA of pathway target genes) [1]: targeting their respective pathways
p-AKT (Ser473) level (p-AKT (Ser473); listed as CE): significantly reduced; also recorded: specifically decreases

C[C@H](NC(=O)Cc1cc(F)cc(F)c1)C(=O)NC1C(=O)N(C)c2ccccc2-c2ccccc21 (stereo partly drawn) [DBZ, (2S)-2-[2-(3,5-difluorophenyl)-acetylamino]-N-(5-methyl-6-oxo-6,7-dihydro-5H-dibenzo[b,-d]azepin-7-yl)-propionamide]
targeting of respective pathway (mRNA of pathway target genes) [1]: targeting their respective pathways
p-AKT (Ser473) level (p-AKT (Ser473)): significantly reduced; also recorded: decreases

O=C1c2c(O)ccc(O)c2C(=O)c2c(NCCNCCO)ccc(NCCNCCO)c21 [Mitoxantrone]
colony formation of CK19/GFP-negative cells [2]: formed colonies
colony formation of CK19/GFP-positive cells [2]: failed to do so

CN(C)CC[C@H](CSc1ccccc1)Nc1ccc(S(=O)(=O)NC(=O)c2ccc(N3CCN(Cc4ccccc4-c4ccc(Cl)cc4)CC3)cc2)cc1[N+](=O)[O-] [ABT-737]
apoptosis (PARP and Caspase-3 cleavage) with PI3K/AKT and Bcl-2 inhibition (CK19/GFP-negative cells): not individual
colony formation of CK19/GFP-negative cells with PI3K/AKT and Bcl-2 inhibition [2]: not individual

CCC1=C[C@@H]2CN(C1)Cc1c([nH]c3ccccc13)[C@@](C(=O)OC)(c1cc3c(cc1OC)N(C)[C@H]1[C@@](O)(C(=O)OC)[C@H](OC(C)=O)[C@]4(CC)C=CCN5CC[C@]31[C@@H]54)C2 [Vinorelbine]
colony formation of CK19/GFP-negative cells [2]: formed colonies
colony formation of CK19/GFP-positive cells [2]: failed to do so

N.N.[Cl][Pt][Cl] [Cisplatin]
colony formation of CK19/GFP-negative cells [2]: formed colonies
colony formation of CK19/GFP-positive cells [2]: failed to do so

CC1=C2C[C@H]3[C@@H](CC=C4C[C@@H](O)CC[C@@]43C)[C@@H]2CC[C@]12O[C@@H]1C[C@H](C)CN[C@H]1[C@H]2C [Cyclopamine]
targeting of respective pathway (mRNA of pathway target genes) [1]: targeting their respective pathways
Bcl-2 expression level (Bcl-2): significantly reduced; also recorded: reduces

Cl.O=c1cc(N2CCOCC2)oc2c(-c3ccccc3)cccc12 [LY294002, 2-(4-Morpholinyl)-8-phenyl-1(4H)-benzopyran-4-one hydrochloride]
apoptosis (PARP and Caspase-3 cleavage) with PI3K/AKT and Bcl-2 inhibition (CK19/GFP-negative cells): not individual
colony formation of CK19/GFP-negative cells with PI3K/AKT and Bcl-2 inhibition [2]: not individual

CC(=O)O[C@@]12CO[C@@H]1C[C@H](O)[C@@]1(C)C(=O)[C@H](O)C3=C(C)[C@@H](OC(=O)[C@H](O)[C@@H](NC(=O)OC(C)(C)C)c4ccccc4)C[C@@](O)([C@@H](OC(=O)c4ccccc4)[C@H]21)C3(C)C [Docetaxel]
differentiation markers and developmental signaling pathways [3]: expected reduction in differentiation markers and increase in developmental signaling pathways
viable 22Rv1-pCK19-GFP-negative cells (22Rv1-pCK19-GFP cells; 8.5±3.5% before treatment): 78.6±4.1%
viable CK19/GFP-positive cells (22Rv1-pCK19-GFP cells; 85.0±2.0% before treatment): 19.3±3.4%
CK-negative cells in xenografts [4]: enriched for CK-negative cells
behavior of CK19/GFP-negative cells under therapy [5]: able to divide and exit mitosis
behavior of CK19/GFP-positive cells under therapy [5]: died after mitotic arrest
viable CK19/GFP-negative population (DU145-pCK19-GFP cells; 4.4±4.3% before treatment): 73.1±10.2%
viable CK19/GFP-positive population (DU145-pCK19-GFP cells; 87.5±10.4% before treatment): 28.3±10.6%
colony formation after exposure to Docetaxel ([2]; Docetaxel 10 nM (DU145) and 50 nM (22Rv1)): only CK19/GFP-negative cells formed colonies

CS(=O)(=O)c1ccc(C(=O)Nc2ccc(Cl)c(-c3ccccn3)c2)c(Cl)c1 [GDC-0449, Vismodegib]
targeting of respective pathway (mRNA of pathway target genes) [1]: targeting their respective pathways
Bcl-2 expression level (Bcl-2): significantly reduced; also recorded: reduces
